Measurements reported in patent US9006437B2, “Xanthene dyes comprising a sulfonamide group” (Biotium, Inc., priority 2009, dated 2015).

assay: Absorption/emission maxima of dyes in pH 7.4 PBS; assay type: physicochemical

Row | SMILES | λabs (nm) (in pH 7.4 PBS) | λem (nm) (in pH 7.4 PBS)
1 | N=c1ccc2c(-c3ccccc3C(=O)O)c3ccc(N)cc3oc-2c1S(=O)(=O)NCCCCCC(=O)ON1C(=O)CCC1=O [Compound No. 9] | 529/ nm | 
2 | N=c1ccc2c(-c3ccccc3C(=O)O)c3ccc(N)c(S(=O)(=O)NCCCCCC(=O)ON4C(=O)CCC4=O)c3oc-2c1 [compound 1] | 488 nm | 516

Continued, values first:

Row | λabs (nm) (in pH 7.4 PBS) | λem (nm) (in pH 7.4 PBS) | SMILES
3 | 488 nm | 516 | N=c1ccc2c(-c3ccccc3C(=O)O)c3ccc(N)c(S(=O)(=O)NCCOCCOCCOCCOCCOCCOCCOCCN)c3oc-2c1S(=O)(=O)O [compound 3]
4 | 488 nm | 516 | N=c1ccc2c(-c3ccccc3C(=O)O)c3ccc(N)c(S(=O)(=O)NCCOCCOCCOCCOCCOCCOCCOCCOCCC(=O)ON4C(=O)CCC4=O)c3oc-2c1S(=O)(=O)O [compound 4]
5 | 488 nm | 516 | COCCOCCNC(=O)c1ccc(-c2c3ccc(=N)c(S(=O)(=O)O)c-3oc3c(S(=O)(=O)NCCOCCOCCOCCOCCC(=O)ON4C(=O)CCC4=O)c(N)ccc23)c(C(=O)O)c1 [compound 5]
